Test results: patent US10967047B2, “Mitochondrial antiviral-signaling (MAVS) polypeptides and detection and use thereof” (University of Vermont and State Agricultural College, priority 2016, dated 2021)

Experiments:
MAVS [1] = assay: MAVS oligomerization in MEFs (semi-denaturing gel electrophoresis, immunoblot, densitometry); type: cell-based, mouse
Description: 5′ triphosphate double-stranded RNA (5′-ppp-dsRNA), a synthetic ligand for RIG-I, was purchased from InVivoGen and used at a concentration of 1 μg/mL. Mitochondria-targeted antioxidant MitoQ and the mitochondria-targeted superoxide generator MitoPQ, were gifts of M. Murphy (G. F. Kelso et al., (2001) The Journal of biological chemistry 276, 4588-4596). The control reagent TPP was purchased from Sigma. Reagents were added to cells at concentrations as indicated. GOx was purchased from Sigma and added to cultured cells at a final concentration of 0.1 U/mL. Iodoacetamide was from Thermo Fisher, and used at a final concentration of 100 μM.
Cultured MEFs or human PBMCs were lysed in a sample buffer containing 2% SDS and insoluble cell fragments were removed by centrifugation. Plasma samples derived from SLE patients were collected and stored at −20° C. until gel electrophoresis. BCA protein assay (Thermo Scientific) was used to determine protein concentrations in all samples were resolved with SDS-PAGE under denaturing conditions. Gels were transferred to PVDF membranes using a Trans-Blot Turbo Transfer System (BioRad).
(§1) SDD-AGE was performed according to a published protocol with minor modifications (Alberti et al., (2009) Cell 137, 146-158). In brief, mitochondria were resuspended in sample buffer (0.5×TBE, 10% glycerol, 2% SDS, and 0.0025% bromophenol blue) and loaded onto a vertical 1.5% agarose gel. After electrophoresis in the running buffer (1×TBE and 0.1% SDS) for 35 min with a constant voltage of 75 V at 4° C., proteins were transferred to PVDF membranes using a Trans-Blot Turbo Transfer System (BioRad) for immunoblotting.
PVDF membranes were blocked in 5% solution of nonfat powdered milk in Tris-buffered saline. Antibodies used were specific for MAVS and Actin (Santa Cruz); RIPK1 and TRAF2 (BD Biosciences); TANK, TRADD, RIG-I, and GAPDH (Cell Signaling); MDAS and COX4 (Abcam), Alexa 488 (Life Technologies), and IRF3 (Thermo Fisher), respectively. Immunoreactive proteins were visualized using HRP-labeled conjugates (Jackson Immuno Research) and developed using Clarity Western ECL substrate (Biorad). Chemiluminescence was detected and recorded using a Biorad Chemidoc instrument. Densitometric measurements were performed in Image Lab image acquisition and analysis software (Biorad).

MEFs [2] = assay: Mitochondrial transmembrane potential (ΔΨm) by FACS using TMRE in MEFs; type: cell-based, mouse
Description: ROS generation was measured using oxidized, green-fluorescent dihydrocalcein acetoxymethylester (DHC-AM) (Life Technologies) and flow cytometry. Single-cell suspensions of MEFs were prepared and ROS was assessed with 5 μM DHC-AM staining in culture medium for 30 minutes (A. Rohnstock et al., (2007) Toxicol in Vitro 21, 1552-1562). 25 nM of cationic cell permeant dye tetramethylrhodamine ethylester (TMRE; Life Technologies) (R. C. Scaduto, Jr. et al., (1999), Biophysical journal 76, 469-477) were used to measure ΔΨm. Additionally, MitoSox Red and MitoTracker Deep Red (Life Technologies) were used to measure mitochondrial ROS and mitochondrial mass, respectively. Flow cytometry was carried out on an LSRII (BD Biosciences), and FlowJo software (Tree Star) was used for analysis.

MEFs [3] = assay: IFN-I and IL-6 cytokine secretion by ELISA in MEF culture supernatants; type: cell-based, mouse
Description: ELISA was used to measure cytokine concentration in supernatant from cultured MEFs and BMDCs, and in sera of SLE patients and healthy control subjects. For assays, samples were centrifuged and IFN-β and IL-6 levels were measured in triplicate using murine or human ELISA kits according to the manufacturer's instructions. (PBL Biosciences). The fold change in IFN-I or IL-6 cells was calculated by directly comparing mock versus virus or chemical inducer of ROS.

MAVS [4] = assay: MAVS oligomerization in human PBMC and plasma (semi-denaturing agarose gel electrophoresis); type: cell-based
Description: MAVS-deficient and matching WT MEFs, gift of Z. J. Chen (Z. J. Chen et al. (2005) Cell 122, 669-682), were maintained in Dulbecco's modified Eagle's medium (DMEM) (Hyclone), supplemented with 10% heat-inactivated fetal calf serum (FCS) (Hyclone), 100 mM L-glutamine (Cellgro Mediatech), and 10,000 units/mL penicillin/10 mg/mL streptomycin sulfate (Life Technologies). C57BL6 or B6; 129-Mavstm1Zjc/J mice (The Jackson Laboratory, Bar Harbor, Me.) were maintained at the University of Vermont under a protocol approved by the Institutional Animal Care and Use Committee. Murine BMDCs were prepared as described by Inaba et al. (K. Inaba et al., (1992) Journal of Experimental Medicine 176, 1693-1702). In brief, cells derived from femur bone marrow were cultured at a density of 5×10^5/mL in 10-cm plates in RPMI 1640 (HyClone), supplemented with 5% heat-inactivated FCS, 100 mmol L-glutamine, 100 mmol sodium pyruvate, 10,000 units/mL penicillin/10 mg/mL streptomycin sulfate, 5×10^−5 mol 2-mercaptoethanol (Sigma, St. Louis, Mo.), and 10 μg/mL GM-CSF (Life Technologies). Human subjects were enrolled under a protocol approved by the University of Vermont Institutional Review Board. Samples from 17 SLE patients fulfilling the American College of Rheumatology diagnostic criteria were studied (E. M. Tan et al., (1982) Arthritis and Rheumatism 25, 1271-1277). 16 out of 17 patients were female, and the age of study participants was 47±3. The disease activity was assessed by the SLE disease activity index (SLEDAI) scores, ranging from 0 to 10 (C. Bombardier et al., (1992) Arthritis and Rheumatism 35, 630-640). Upon informed consent, primary human PBMCs were obtained from heparinized whole-blood samples from SLE patients. Control PBMCs were generated from age-, sex-, and ethnicity-matched healthy subjects. PBMCs were isolated using standard Ficoll gradient centrifugation as previously described (R. Mallone et al., (2011) Clin. and Exp. Immunol. 163, 33-49). Cells were either used immediately to prepare lysates for immunoblotting or cultured at a density of 5×10^5/mL in a 12-well culture plate with RPMI 1640 (HyClone), supplemented with 5% heat-inactivated FCS, 100 mmol L-glutamine, 100 mmol sodium pyruvate, and 10,000 units/mL penicillin/10 mg/mL streptomycin sulfate. Enriched monocytes from PBMCs were used to prepare hDCs using negative magnetic bead selection (Miltenyi), and were subsequently cultivated for 6 d in 10 μg/mL GM-CSF and 500 U/mL IL-4. All cells were maintained in a humidified chamber at 37° C. and 5% CO2.
as §1
PVDF membranes were blocked in 5% solution of nonfat powdered milk in Tris-buffered saline. Antibodies used were specific for MAVS and Actin (Santa Cruz); RIPK1 and TRAF2 (BD Biosciences); TANK, TRADD, RIG-I, and GAPDH (Cell Signaling); MDAS and COX4 (Abcam), Alexa 488 (Life Technologies), and IRF3 (Thermo Fisher), respectively. […] Chemiluminescence was detected and recorded using a Biorad Chemidoc instrument. […]

Compound	decrease in MAVS oligomers (MAVS [1]; MEFs pre-treated with 100 μM MitoQ, then GOx, oligomer/monomer ratio by densitometry (FIG. 3B))	decrease in MAVS oligomerization (MAVS [1]; MEFs pre-treated with 100 μM MitoQ, then SINV infection, densitometry (FIG. 3B))	MAVS oligomerization after pretreatment (MAVS [1]; MEFs pretreated (100 μM) before GOx or SINV (FIG. 3A))	mitochondrial hyperpolarization (ΔΨm) with MitoQ (MEFs [2]; MEF, GOx+/−MitoQ and SINV+/−MitoQ, TMRE (FIG. 3C))	IFN-I secretion with MitoQ (MEFs [3]; MEF with or without MitoQ, GOx or SINV (FIG. 3D))	GOx-induced MAVS oligomerization in PBMCs after pretreatment (MAVS [4]; healthy-donor PBMCs pretreated with MitoQ or grown in presence of β-Me, then GOx (FIG. 4A))	induction of MAVS oligomerization without viral infection (MAVS [1]; MEFs, substance alone (MitoPQ 1 to 10 nM, FIG. 2H; GOx, FIG. 2A))	ΔΨm induced by the substance (MEFs [2]; MAVS-WT MEFs, not observed in MAVS-KO (FIG. 1B, 2D))	IFN-I secretion induced by the substance (MEFs [3]; MAVS-WT MEFs, not observed in MAVS-KO (FIG. 2E, 2J))	IL-6 secretion induced by the substance (MEFs [3]; MAVS-WT MEFs, not observed in MAVS-KO (FIG. 2F, 2K))	induction of MAVS oligomerization in PBMCs (MAVS [4]; healthy-donor PBMCs treated with GOx (FIG. 4A))
COC1=C(OC)C(=O)C(CCCCCCCCCC[P+](c2ccccc2)(c2ccccc2)c2ccccc2)=C(C)C1=O.CS(=O)(=O)[O-] [MitoQ, [10-(4,5-Dimethoxy-2-methyl-3,6-dioxo-1,4-cyclohexadien-1-yl)decyl](triphenyl)phosphonium methanesulfonate]	≥ 80%	~40%	reduced MAVS oligomerization	decreased mitochondrial hyperpolarization	reduced IFN-I secretion	MAVS oligomerization did not occur					
glucose oxidase [GOx]							sufficient to induce MAVS oligomerization	increased ΔΨm	increased secretion	increased secretion	induced pronounced MAVS oligomerization
